Data on 41 compounds can be found in patent US6875768B1, “Phthalamide derivatives, intermediates in the production thereof, and agricultural/horticultural insecticides and method for using the same” (Nihon Nohyako Co., Ltd., priority 1999, dated 2005).

Series [1] relates to diamond back moth (Plutella xylostella). In kind it is in vivo. The note with it: 1,000 ppm; Chinese cabbage seedling with eggs immersed about 30 seconds; counted six days after the immersion; 25° C. The text has this: Insecticidal effect on diamond back moth (Plutella xylostella)
Adult diamond back moths were released and allowed to oviposit on a Chinese cabbage seedling. […] Six days after the immersion, the hatched insects were counted. […] [formula] Criterion • A - - - Mortality 100% • B - - - Mortality 99-90% • C - - - Mortality 89-80% • D - - - Mortality 79-50%

Series [2] has as its system Common cutworm (Spodoptera litura). In kind it is in vivo. The note with it: 500 ppm; cabbage leaf immersed about 30 seconds; second-instar larvae; eight days after the inoculation; 25° C. From the text:
Insecticidal Effect on Common cutworm (Spodoptera litura)

Take `Cc1cc(C(C)(C)C)sc1NC(=O)c1cccc(I)c1C(=O)NC(C)C` [Q1-12]: the “insecticidal effect (activity ranking by mortality)” value (“insecticidal effect” for short) in series [1] was “B or higher”.

For the compound `Cc1cc(C(C)(C)C)sc1NC(=O)c1c(I)cccc1C(=O)NC(C)C` [Q1-41], in series [1], the “insecticidal effect” value was “B or higher”.

As for `Cc1ccsc1NC(=O)c1c(I)cccc1C(=O)NC(C)C` [Q1-42], the “insecticidal effect” value in series [1] was “B or higher”.

For `CC(C)NC(=O)c1c(Cl)cccc1C(=O)Nc1cc(-c2ccc(Br)cc2)on1` [Q4-6], the “insecticidal effect” value in series [1] is reported as “B or higher”.

Take `Cc1c(NC(=O)c2c(Cl)cccc2C(=O)NC(C)C)noc1-c1ccc(Cl)cc1` [Q4-8]: in series [1], the “insecticidal effect” value is “B or higher”.

On to `Cc1c(NC(=O)c2cccc(I)c2C(=O)NC(C)C)noc1C(F)(F)F` [Q4-12], for which, in series [1], the “insecticidal effect” value is “B or higher”.

Take `Cc1c(NC(=O)c2c(I)cccc2C(=O)NC(C)C)noc1C(F)(F)F` [Q4-45]: the “insecticidal effect” value in series [1] is recorded as “B or higher”.

For the compound `Cc1cc(NC(=O)c2cccc([N+](=O)[O-])c2C(=O)NC(C)C)n(C)n1` [Q6-6], the “insecticidal effect” value in series [1] is “B or higher”.

On to `Cc1c(C(F)(F)F)noc1NC(=O)c1cccc(I)c1C(=O)NC(C)C` [Q6-8, N^1-(4-methyl-3-trifluoromethyl-isoxazol-5-yl)-N^2-isopropyl-3-iodophthalamide], for which, in series [1], the “insecticidal effect” value is “B or higher”.

In the case of `CC(C)NC(=O)c1c(Cl)cccc1C(=O)Nc1nccs1` [Q8-1], the “insecticidal effect” value in series [1] is reported as “B or higher”.

On to `Cc1csc(NC(=O)c2cccc(Cl)c2C(=O)NC(C)C)n1` [Q8-2], for which the “insecticidal effect” value in series [1] is reported as “B or higher”.

Turning to `CC(C)NC(=O)c1c(Cl)cccc1C(=O)Nc1nc(C(F)(F)F)cs1` [Q8-3], the “insecticidal effect” value in series [1] was “B or higher”.

Regarding `CC(C)NC(=O)c1c(Cl)cccc1C(=O)Nc1nc(-c2ccccc2)c(Cl)s1` [Q8-5], the “insecticidal effect” value in series [1] is reported as “B or higher”.

In the case of `CCCNC(=O)c1c(Cl)cccc1C(=O)Nc1nc(C)c(Oc2ccccc2)n1C` [Q8-11], in series [1], the “insecticidal effect” value is reported as “B or higher”.

On to `CC(C)NC(=O)c1cccc(Cl)c1C(=O)Nc1nc(C(F)(F)F)cs1` [Q8-13], for which the “insecticidal effect” value in series [1] is reported as “B or higher”.

For the compound `CC(C)NC(=O)c1cccc(Cl)c1C(=O)Nc1nc(-c2ccccc2)cs1` [Q8-14], in series [1], the “insecticidal effect” value is “B or higher”.

For the compound `CC(C)NC(=O)c1cccc(Cl)c1C(=O)Nc1nc(-c2ccccc2)c(Cl)s1` [Q8-15], the “insecticidal effect” value in series [1] is “B or higher”.

With `CCN(CC)C(=O)c1c(I)cccc1C(=O)Nc1nc(-c2ccc(Cl)cc2)cs1` [Q8-53], the “insecticidal effect” value in series [1] is “B or higher”.

Take `Cc1sc(I)nc1NC(=O)c1cccc(I)c1C(=O)NC(C)C` [Q9-15]: the “insecticidal effect” value in series [1] is “B or higher”.

As to `Cc1ncoc1NC(=O)c1cccc(I)c1C(=O)NC(C)C` [Q10-7], the “insecticidal effect” value in series [1] is recorded as “B or higher”.

For `CC(C)NC(=O)c1c(I)cccc1C(=O)Nn1cnnc1` [Q15-1], the “insecticidal effect” value in series [1] is “B or higher”.

In the case of `Cc1cc(C(F)(C(F)(F)F)C(F)(F)F)cnc1NC(=O)c1cccc(I)c1C(=O)NC(C)C` [Q26-11], the “insecticidal effect” value in series [2] and in series [1] was “B or higher” each time.

Consider `CSCC(C)(C)NC(=O)c1c(I)cccc1C(=O)Nc1cnc(C(F)(C(F)(F)F)C(F)(F)F)cc1C` [Q27-150], for which the “insecticidal effect” value in series [2] and in series [1] was “B or higher” throughout.

Consider `Cc1cc(C(F)(C(F)(F)F)C(F)(F)F)ncc1NC(=O)c1cccc(I)c1C(=O)NC(C)(C)C[S+](C)[O-]` (centres unmarked) [Q27-152], for which, in series [2], the “insecticidal effect” value is listed as “B or higher”.

In the case of `Cc1nc(C(F)(C(F)(F)F)C(F)(F)F)ccc1NC(=O)c1cccc(I)c1C(=O)NC(C)(C)C[S+](C)[O-]` (centres unmarked) [Q27-153], the “insecticidal effect” value in series [2] and in series [1] was “B or higher” in each case.

In the case of `Cc1nc(C(F)(C(F)(F)F)C(F)(F)F)ccc1NC(=O)c1cccc(I)c1C(=O)NC(C)(C)CS(C)(=O)=O` [Q27-155], the “insecticidal effect” value in series [2] and in series [1] was “B or higher” each time.

For `CC(C)NC(=O)c1c(I)cccc1C(=O)Nc1ccc(C(F)(C(F)(F)F)C(F)(F)F)nc1Cl` [Q27-230], the “insecticidal effect” value in series [2] and in series [1] was “B or higher” throughout.

Take `CCN(CC)C(=O)c1c(I)cccc1C(=O)Nc1ccc(C(F)(C(F)(F)F)C(F)(F)F)nc1Cl` [Q27-231]: the “insecticidal effect” value in series [2] and in series [1] was “B or higher” in each case.

`CSCC(C)NC(=O)c1c(I)cccc1C(=O)Nc1ccc(C(F)(C(F)(F)F)C(F)(F)F)nc1Cl` (centres unmarked) [Q27-232]: the “insecticidal effect” value in series [2] and in series [1] was “B or higher” each time.

For `CSCC(C)(C)NC(=O)c1c(I)cccc1C(=O)Nc1ccc(C(F)(C(F)(F)F)C(F)(F)F)nc1` [Q27-233], the “insecticidal effect” value in series [2] and in series [1] was “B or higher” each time.

Consider `CSCC(C)(C)NC(=O)c1c(I)cccc1C(=O)Nc1ccc(C(F)(C(F)(F)F)C(F)(F)F)nc1Cl` [Q27-234], for which the “insecticidal effect” value in series [2] and in series [1] was “B or higher” throughout.

Turning to `Cc1nc(C(F)(C(F)(F)F)C(F)(F)F)ccc1NC(=O)c1cccc(I)c1C(=O)NC(C)(C)C[S+](C)[O-]` (centres unmarked) [Q27-244], the “insecticidal effect” value in series [1] was “B or higher”.

As for `Cc1nc(OC(F)(F)C(F)C(F)(F)F)ccc1NC(=O)c1cccc(I)c1C(=O)NC(C)C` (centres unmarked) [Q27-391], the “insecticidal effect” value in series [1] was “B or higher”.

With `CSCC(C)(C)NC(=O)c1c(I)cccc1C(=O)Nc1ccc(OC(F)(F)C(F)C(F)(F)F)nc1C` (centres unmarked) [Q27-393], the “insecticidal effect” value in series [1] is listed as “B or higher”.

As to `CSCC(C)(C)NC(=O)c1c(I)cccc1C(=O)Nc1ccc(OC(F)(F)C(F)C(F)(F)F)nc1C` (centres unmarked) [Q27-396], in series [1], the “insecticidal effect” value was “B or higher”.

On to `CC(C)NC(=O)c1c(Cl)cccc1C(=O)Nc1ccc(C(F)(C(F)(F)F)C(F)(F)F)nc1Cl` [Q27-459], for which the “insecticidal effect” value in series [2] is “B or higher”.

With `Cc1nc(Oc2ccc(C(F)(F)F)cc2)ccc1NC(=O)c1cccc(I)c1C(=O)NC(C)C` [Q27-466], the “insecticidal effect” value in series [2] is on record as “B or higher”.

Turning to `CC(C)NC(=O)c1c(I)cccc1C(=O)Nc1c(Cl)ncnc1Cl` [Q32-11], the “insecticidal effect” value in series [1] is listed as “B or higher”.

Regarding `COc1cc(OC)nc(NC(=O)c2ccccc2C(=O)NC(C)C)n1` [Q33-1], the “insecticidal effect” value in series [1] is “B or higher”.

Consider `COc1nc(NC(=O)c2cccc(I)c2C(=O)NC(C)C)nc(OC)c1C(F)(C(F)(F)F)C(F)(F)F` [Q33-10], for which the “insecticidal effect” value in series [1] is “B or higher”.

On to `CCN(CC)C(=O)c1c(I)cccc1C(=O)Nc1cnccn1` [Q34-30], for which the “insecticidal effect” value in series [1] is listed as “B or higher”.
